Assay results published in ChEMBL document CHEMBL1123745, “Preparation and biological evaluation of a potential photoaffinity label for the prostaglandin H2/thromboxane A2 receptor” (J Med Chem, 1987).

What was measured:
[1] = target: T1, Thromboxane A2 receptor (Homo sapiens) (UniProt P21731); experiment: Ability to inhibit the U-46,619 (TXA2 agonist, 3 uM); type: functional
T1 sequence (whole entry): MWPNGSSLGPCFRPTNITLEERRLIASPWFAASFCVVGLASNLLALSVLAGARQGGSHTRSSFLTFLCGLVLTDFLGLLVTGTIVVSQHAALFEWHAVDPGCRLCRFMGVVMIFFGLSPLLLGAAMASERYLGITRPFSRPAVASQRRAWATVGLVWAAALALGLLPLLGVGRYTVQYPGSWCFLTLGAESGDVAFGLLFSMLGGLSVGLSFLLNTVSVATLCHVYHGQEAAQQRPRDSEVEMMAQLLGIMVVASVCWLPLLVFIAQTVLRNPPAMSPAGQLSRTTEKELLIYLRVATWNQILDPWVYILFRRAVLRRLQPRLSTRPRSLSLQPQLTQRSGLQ

[2] = Ability to inhibit U-46,619 (0.5 uM) induced aggregation in human platelet rich plasma (PRP) relative to 13-azaprostanoic acid; type: functional
[3] = Ability to inhibit ADP (10 uM) induced aggregation in human platelet rich plasma (PRP) relative to 13-azaprostanoic acid; type: functional
Homo sapiens = species on record: Homo sapiens; experiment: Inhibition of [3H]U-46619 binding in dark incubated platelets; type: functional
[4] = target: T1, Thromboxane A2 receptor (Homo sapiens); experiment: Ability to inhibit the U-46,619 (TXA2 agonist,3uM) induced aggregation in human platelets; range (5-20 uM); type: functional
[5] = target: T1, Thromboxane A2 receptor (Homo sapiens); experiment: Ability to inhibit the U-46,619 (TXA2 agonist,3 uM) induced aggregation in human platelets was determined; type: functional
[6] = target: T1, Thromboxane A2 receptor (Homo sapiens); experiment: Inhibition of UV-irridiated platelets relative to dark incubated platelets after irreversible inhibition of U-46,619 binding after photoactivation (p<0.02); details: concentration not given here

| SMILES | ED50 [4] | also measured |
| --- | --- | --- |
| O=C(O)CCCCCCC1CCCC1NCCCOc1ccccc1 (trans isomer) | – | ED50 [1]: 20 µM |
| [N-]=[N+]=Nc1ccc(CCCNC2CCCC2CCCCCCC(=O)O)cc1[127I] (trans isomer) | – | Inhibition [2]: 81%; Inhibition [3]: 15%; Ki (Homo sapiens): 0.29 µM |
| Nc1ccc(CCCNC2CCCC2CCCCCCC(=O)O)cc1 (trans isomer) | 20 µM | – |
| [N-]=[N+]=Nc1ccc(OCCCNC2CCCC2CCCCCCC(=O)O)cc1 (trans isomer) | 20 µM | Inhibition [2]: 38%; Inhibition [3]: 50% |
| O=C(O)CCCCCCC1CCCC1NCCCc1ccc([N+](=O)[O-])cc1 (cis isomer) | 20 µM | – |
| O=C(O)CCCCCCC1CCCC1NCCCOc1ccc([N+](=O)[O-])cc1 (trans isomer) | 20 µM | – |
| [N-]=[N+]=Nc1ccc(CCCNC2CCCC2CCCCCCC(=O)O)cc1 (trans isomer) [listing 1 of 2 here] | – | Inhibition [2]: 63%; Inhibition [3]: 19% |
| [N-]=[N+]=Nc1ccc(CCCNC2CCCC2CCCCCCC(=O)O)cc1 (trans isomer) [listing 2 of 2 here] | 20 µM | – |
| O=C(O)CCCCCCC1CCCC1NCCCc1ccc([N+](=O)[O-])cc1 (trans isomer) | 20 µM | – |
| O=C(O)CCCCCCC1CCCC1NCCCOc1ccccc1 (stereo not given) | 20 µM | – |
| O=C(O)CCCCCCC1CCCC1NCCCOc1ccc([N+](=O)[O-])cc1 (stereo in doubt) | 20 µM | – |
| Nc1ccc(OCCCNC2CCCC2CCCCCCC(=O)O)cc1 (trans isomer) | 20 µM | – |
| [N-]=[N+]=Nc1ccc(CCCNC2CCCC2CCCCCCC(=O)O)cc1I (trans isomer) | – | ED50 [5]: 2 µM; inhibition [6]: 38% |
| [N-]=[N+]=Nc1ccc(CCCNC2CCCC2CCCCCCC(=O)O)cc1 (cis isomer) | 20 µM | – |
